Measured values published in US5972953A, “Brain cell protective agent” (priority 1993, dated 1999).

Experiments:
[1] = tested on: nerve cells in the CAl region of the hippocampus; assay: Protective action from delayed neuronal death (bilateral carotid ligation ischemia, residual hippocampal nerve cells); format: in vivo, mongolian jerbils; conditions: for inhibition of defluxion of brain nerve cells caused by ischemia: conclusion from Table 2
Description: Those compounds that provide protection from and suppress delayed neuronal death described in Example 18 are considered to be promising as preventive and therapeutic agents for ischemic brain disorders, brain nerve cell disorders and dementia, which are problems that the present invention is attempting to solve. The pharmacological activity of the compounds of the present invention was evaluated in the manner below using jerbils for the animal model.
A midline incision was made in mongolian having body weights of 50-70 g under ether anesthesia. Blood flow through the carotid arteries on both sides was interrupted to create an ischemic state by ligating the vessels for 5 minutes. The test compound was administered subcutaneously either 30 minutes or 1 hour prior to ligation ischemia, and the rectal temperature of the animals was controlled to 37±2° C. using a heating pad or heater starting 5 minutes before to 30 minutes after ligation ischemia. 1 week after ligation, 4% neutral buffered formalin was perfused from the heart throughout the body followed by extraction of the brain. After post-fixing the extracted brain in the same solution, the tissue was prepared into sections after embedding in paraffin. The sections were stained with hematoxylin and eosin, and the number of nerve cells in the CAl region of the hippocampus over a width of 1 mm to the left and right was counted. The total number of nerve cells on the right and left sides was then used for evaluation.

[2] = tested on: cultured nerve cells (cerebral cortex); assay: cells; format: cell-based, Wistar rat; conditions: Rattus norvegicus, Cerebral cortex neuron; 10 mM glutamate, 24 hours at 37° C., LDH leakage; read-out: ED50 (the source's name)

Row | SMILES | inhibition of defluxion of brain nerve cells caused by ischemia [1] | EC50 [2] [µM] | No. of Residual Nerve Cells ([1]; 3 mg/kg s.c., 30 minutes before ischemia, 1 week after 5 min ligation)
1 | CN(C(=O)/C=C/c1cccc([N+](=O)[O-])c1)[C@@H]1CC[C@@]2(O)[C@H]3Cc4ccc(O)c5c4[C@@]2(CCN3CC2CC2)[C@H]1O5 [Compound 78, 17-cyclopropylmethyl-3,14β-dihydroxy-4,5α-epoxy-6β-(N-methyl-3-nitrocinnamamido)morphinan] | significantly inhibited defluxion of brain nerve cells caused by ischemia |  | 
2 | CN(C(=O)/C=C/c1cccc(C(F)(F)F)c1)[C@@H]1CC[C@@]2(O)[C@H]3Cc4ccc(O)c5c4[C@@]2(CCN3CC2CC2)[C@H]1O5 [Compound 42, 17-cyclopropylmethyl-3,14β-dihydroxy-4,5α-epoxy-6β-(N-methyl-3-trifluoromethylcinnamamido)morphinan] | significantly inhibited defluxion of brain nerve cells caused by ischemia | 1.8 | 
3 | CN(C(=O)CCCCCc1ccccc1)[C@H]1CC[C@@]2(O)[C@H]3Cc4ccc(O)c5c4[C@@]2(CCN3CC2CC2)[C@H]1O5 [Compound 34, 17-cyclopropylmethyl-3,14β-dihydroxy-4,5α-epoxy-6α-(N-methyl-6-phenylhexanoamido)morphinan] | significantly inhibited defluxion of brain nerve cells caused by ischemia |  | 
4 | CN(C(=O)c1ccccc1)[C@@H]1CC[C@@]2(O)[C@H]3Cc4ccc(O)c5c4[C@@]2(CCN3CC2CC2)[C@H]1O5 [Compound 45, 17-cyclopropylmethyl-3,14β-dihydroxy-4,5α-epoxy-6β-(N-methylbenzamido)morphinan] |  | 3.72 | 
5 | O=C(CCc1ccccc1)O[C@H]1CC[C@@]2(O)[C@H]3Cc4ccc(O)c5c4[C@@]2(CCN3CC2CC2)[C@H]1O5 [Compound 113, 17-cyclopropylmethyl-3,14β-dihydroxy-4,5α-epoxy-6α-(3-phenylpropionyloxy)morphinanan] |  | 0.53 | 
6 | CC(C)CN(C(=O)Cc1ccc(Cl)c(Cl)c1)[C@H]1CC[C@@]2(O)[C@H]3Cc4ccc(O)c5c4[C@@]2(CCN3CC2CC2)[C@H]1O5 [Compound 35, 17-cyclopropylmethyl-3,14β-dihydroxy-4,5α-epoxy-6α-(N-isobutyl-3,4-dichlorophenylacetoamido)morphinan] | significantly inhibited defluxion of brain nerve cells caused by ischemia |  | 203.1 ± 40.1
7 | O=C(CCCCCc1ccccc1)N(CCCCc1ccccc1)[C@@H]1CC[C@@]2(O)[C@H]3Cc4ccc(O)c5c4[C@@]2(CCN3CC2CC2)[C@H]1O5 [Compound 73, 17-cyclopropylmethyl-3,14β-dihydroxy-4,5α-epoxy-6β-[N-(4-phenylbutyl)-6-phenylhexanoamido)morphinan] |  | 0.14 | 
8 | CN([C@H]1CC[C@@]2(O)[C@H]3Cc4ccc(O)c5c4[C@@]2(CCN3CC2CC2)[C@H]1O5)S(=O)(=O)Cc1ccccc1 [Compound 112, 17-cyclopropylmethyl-3,14β-dihydroxy-4,5α-epoxy-6α-(N-methyl-phenylmethanesulfonamido)morphinan] |  | 1.45 | 
9 | CC(C)CN(C(=O)CCCCCc1ccccc1)[C@H]1CC[C@@]2(O)[C@H]3Cc4ccc(O)c5c4[C@@]2(CCN3CC2CC2)[C@H]1O5 [Compound 37, 17-cyclopropylmethyl-3,14β-dihydroxy-4,5α-epoxy-6α-(N-isobutyl-6-phenylhexanoamido)morphinan] |  | 0.06 | 
10 | CN(C(=O)Cc1ccccc1)[C@@H]1CC[C@@]2(O)[C@H]3Cc4ccc(O)c5c4[C@@]2(CCN3CC2CC2)[C@H]1O5 [Compound 47, 17-cyclopropylmethyl-3,14β-dihydroxy-4,5α-epoxy-6β-(N-methylphenylacetoamido)morphinan] |  | 17.1 | 
11 | CC(C)N(Cc1ccccc1)[C@@H]1CC[C@@]2(O)[C@H]3Cc4ccc(O)c5c4[C@@]2(CCN3CC2CC2)[C@H]1O5 [Compound 6, 17-cyclopropylmethyl-3,14β-dihydroxy-4,5α-epoxy-6β-(N-isopropylbenzylamino)morphinan] |  | 1.93 | 
12 | O=C(CCCCCc1ccccc1)N(CC1CCCCC1)[C@@H]1CC[C@@]2(O)[C@H]3Cc4ccc(O)c5c4[C@@]2(CCN3CC2CC2)[C@H]1O5 [Compound 71, 17-cyclopropylmethyl-3,14β-dihydroxy-4,5α-epoxy-6β-(N-cyclohexylmethyl-6-phenylhexanoamido)morphinan] |  | 0.1 | 
13 | CN(C(=O)c1ccc2ccccc2c1)[C@@H]1CC[C@@]2(O)[C@H]3Cc4ccc(O)c5c4[C@@]2(CCN3CC2CC2)[C@H]1O5 [Compound 52, 17-cyclopropylmethyl-3,14β-dihydroxy-4,5α-epoxy-6β-(N-methyl-2-naphthamido)morphinan] |  | 1.49 | 
14 | CN([C@H]1CC[C@@]2(O)[C@H]3Cc4ccc(O)c5c4[C@@]2(CCN3CC2CC2)[C@H]1O5)S(=O)(=O)Cc1ccc(Cl)c(Cl)c1 [Compound 111, 17-cyclopropylmethyl-3,14β-dihydroxy-4,5α-epoxy-6α-(N-methyl-3,4-dichlorophenylmethanesulfonamido) morphinan] |  | 0.54 | 
15 | Cc1cccc(/C=C/C(=O)N(C)[C@@H]2CC[C@@]3(O)[C@H]4Cc5ccc(O)c6c5[C@@]3(CCN4CC3CC3)[C@H]2O6)c1 [Compound 46, 17-cyclopropylmethyl-3,14β-dihydroxy-4,5α-epoxy-6β-(N-methyl-3-methylcinnamamido) morphinan] | significantly inhibited defluxion of brain nerve cells caused by ischemia | 4.42 | 
16 | CN(C(=O)/C=C/c1ccsc1)[C@@H]1CC[C@@]2(O)[C@H]3Cc4ccc(O)c5c4[C@@]2(CCN3CC2CC2)[C@H]1O5 (relative stereo) [Compound 54, 17-cyclopropylmethyl-3,14β-dihydroxy-4,5α-epoxy-6β-[N-methyl-trans-3-(3-thienyl)acrylamido]morphinan] |  | 13.5 | 
